{"source": "ChEMBL document CHEMBL1201862", "about": "“PubChem BioAssay data set” (2004)", "assay_in_all_cases": "NCI-60 cell line screen, 48 h", "key": {"786-0": {"tested_on": "786-0"}, "A498": {"tested_on": "A498"}, "A549": {"tested_on": "A549"}, "ACHN": {"tested_on": "ACHN"}, "CAKI-1": {"tested_on": "CAKI-1"}, "CCRF-CEM": {"tested_on": "CCRF-CEM"}, "COLO 205": {"tested_on": "COLO 205"}, "DLD-1": {"tested_on": "DLD-1"}, "DMS-114": {"tested_on": "DMS-114"}, "DMS-273": {"tested_on": "DMS-273"}, "EKVX": {"tested_on": "EKVX"}, "HCC 2998": {"tested_on": "HCC 2998"}, "HCT-116": {"tested_on": "HCT-116"}, "HCT-15": {"tested_on": "HCT-15"}, "HOP-62": {"tested_on": "HOP-62"}, "HT-29": {"tested_on": "HT-29"}, "IGROV-1": {"tested_on": "IGROV-1"}, "K562": {"tested_on": "K562"}, "KM-20L2": {"tested_on": "KM-20L2"}, "KM12": {"tested_on": "KM12"}, "LOX IMVI": {"tested_on": "LOX IMVI"}, "LXFL 529": {"tested_on": "LXFL 529"}, "M14": {"tested_on": "M14"}, "M19-MEL": {"tested_on": "M19-MEL"}, "MOLT-4": {"tested_on": "MOLT-4"}, "Malme-3M": {"tested_on": "Malme-3M"}, "NCI-H226": {"tested_on": "NCI-H226"}, "NCI-H23": {"tested_on": "NCI-H23"}, "NCI-H460": {"tested_on": "NCI-H460"}, "NCI-H522": {"tested_on": "NCI-H522"}, "OVCAR-3": {"tested_on": "OVCAR-3"}, "OVCAR-4": {"tested_on": "OVCAR-4"}, "OVCAR-5": {"tested_on": "OVCAR-5"}, "OVCAR-8": {"tested_on": "OVCAR-8"}, "RPMI-8226": {"tested_on": "RPMI-8226"}, "RXF 393": {"tested_on": "RXF 393"}, "SF-268": {"tested_on": "SF-268"}, "SF-295": {"tested_on": "SF-295"}, "SF-539": {"tested_on": "SF-539"}, "SK-MEL-28": {"tested_on": "SK-MEL-28"}, "SK-MEL-2": {"tested_on": "SK-MEL-2"}, "SK-MEL-5": {"tested_on": "SK-MEL-5"}, "SK-OV-3": {"tested_on": "SK-OV-3"}, "SN12C": {"tested_on": "SN12C"}, "SNB-19": {"tested_on": "SNB-19"}, "SNB-75": {"tested_on": "SNB-75"}, "SNB-78": {"tested_on": "SNB-78"}, "SW-620": {"tested_on": "SW-620"}, "TK-10": {"tested_on": "TK-10"}, "U-251": {"tested_on": "U-251"}, "UACC-257": {"tested_on": "UACC-257"}, "UACC-62": {"tested_on": "UACC-62"}, "UO-31": {"tested_on": "UO-31"}, "XF498": {"tested_on": "XF498"}, "HL-60": {"tested_on": "HL-60"}, "HOP-18": {"tested_on": "HOP-18"}, "HOP-92": {"tested_on": "HOP-92"}}, "note": "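The compound was tested at five concentrations on cells cultured in 96-well plates, with a 48-hour exposure period. GI50: concentration for 50% inhibition of growth.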 Calls of active or inactive are those of the source. Cut-off read from the data, not from the text of the source: active = GI50 up to about 1.1 µM and inactive = higher.", "data": [{"smiles": "Nc1c2ccccc2nc2c(C(=O)Nc3ccc(S(N)(=O)=O)cc3)cccc12", "values": [{"measurement": "GI50", "setting": "786-0", "value": "> 100 µM (inactive)"}, {"measurement": "GI50", "setting": "A498", "value": "> 100 µM (inactive)"}, {"measurement": "GI50", "setting": "A549", "value": "> 100 µM (inactive)"}, {"measurement": "GI50", "setting": "ACHN", "value": "> 100 µM (inactive)"}, {"measurement": "GI50", "setting": "CAKI-1", "value": "> 100 µM (inactive)"}, {"measurement": "GI50", "setting": "CCRF-CEM", "value": "12.5 µM (inactive)"}, {"measurement": "GI50", "setting": "COLO 205", "value": "> 100 µM (inactive)"}, {"measurement": "GI50", "setting": "DLD-1", "value": "> 100 µM (inactive)"}, {"measurement": "GI50", "setting": "DMS-114", "value": "> 100 µM (inactive)"}, {"measurement": "GI50", "setting": "DMS-273", "value": "52.8 µM (inactive)"}, {"measurement": "GI50", "setting": "EKVX", "value": "> 100 µM (inactive)"}, {"measurement": "GI50", "setting": "HCC 2998", "value": "> 100 µM (inactive)"}, {"measurement": "GI50", "setting": "HCT-116", "value": "67.5 µM (inactive)"}, {"measurement": "GI50", "setting": "HCT-15", "value": "> 100", "unit": "µM"}, {"measurement": "GI50", "setting": "HOP-62", "value": "> 100 µM (inactive)"}, {"measurement": "GI50", "setting": "HT-29", "value": "> 100 µM (inactive)"}, {"measurement": "GI50", "setting": "IGROV-1", "value": "> 100 µM (inactive)"}, {"measurement": "GI50", "setting": "K562", "value": "28.6 µM (inactive)"}, {"measurement": "GI50", "setting": "KM-20L2", "value": "> 100 µM (inactive)"}, {"measurement": "GI50", "setting": "KM12", "value": "32.1 µM (inactive)"}, {"measurement": "GI50", "setting": "LOX IMVI", "value": "40.1 µM (inactive)"}, {"measurement": "GI50", "setting": "LXFL 529", "value": "45.2 µM (inactive)"}, {"measurement": "GI50", "setting": "M14", "value": "> 100 µM (inactive)"}, {"measurement": "GI50", "setting": "M19-MEL", "value": "60 µM (inactive)"}, {"measurement": "GI50", "setting": "MOLT-4", "value": "11.1 µM (inactive)"}, {"measurement": "GI50", "setting": "Malme-3M", "value": "74 µM (inactive)"}, {"measurement": "GI50", "setting": "NCI-H226", "value": "84.3 µM (inactive)"}, {"measurement": "GI50", "setting": "NCI-H23", "value": "> 100 µM (inactive)"}, {"measurement": "GI50", "setting": "NCI-H460", "value": "> 100 µM (inactive)"}, {"measurement": "GI50", "setting": "NCI-H522", "value": "21.8 µM (inactive)"}, {"measurement": "GI50", "setting": "OVCAR-3", "value": "33.7 µM (inactive)"}, {"measurement": "GI50", "setting": "OVCAR-4", "value": "> 100 µM (inactive)"}, {"measurement": "GI50", "setting": "OVCAR-5", "value": "> 100 µM (inactive)"}, {"measurement": "GI50", "setting": "OVCAR-8", "value": "57.9 µM (inactive)"}, {"measurement": "GI50", "setting": "RPMI-8226", "value": "33.1 µM (inactive)"}, {"measurement": "GI50", "setting": "RXF 393", "value": "> 100 µM (inactive)"}, {"measurement": "GI50", "setting": "SF-268", "value": "42.3 µM (inactive)"}, {"measurement": "GI50", "setting": "SF-295", "value": "> 100 µM (inactive)"}, {"measurement": "GI50", "setting": "SF-539", "value": "13.2 µM (inactive)"}, {"measurement": "GI50", "setting": "SK-MEL-28", "value": "> 100 µM (inactive)"}, {"measurement": "GI50", "setting": "SK-MEL-2", "value": "> 100 µM (inactive)"}, {"measurement": "GI50", "setting": "SK-MEL-5", "value": "86.3 µM (inactive)"}, {"measurement": "GI50", "setting": "SK-OV-3", "value": "> 100 µM (inactive)"}, {"measurement": "GI50", "setting": "SN12C", "value": "> 100 µM (inactive)"}, {"measurement": "GI50", "setting": "SNB-19", "value": "92.3 µM (inactive)"}, {"measurement": "GI50", "setting": "SNB-75", "value": "61.8 µM (inactive)"}, {"measurement": "GI50", "setting": "SNB-78", "value": "> 100 µM (inactive)"}, {"measurement": "GI50", "setting": "SW-620", "value": "66.2 µM (inactive)"}, {"measurement": "GI50", "setting": "TK-10", "value": "> 100 µM (inactive)"}, {"measurement": "GI50", "setting": "U-251", "value": "49 µM (inactive)"}, {"measurement": "GI50", "setting": "UACC-257", "value": "> 100 µM (inactive)"}, {"measurement": "GI50", "setting": "UACC-62", "value": "97.5 µM (inactive)"}, {"measurement": "GI50", "setting": "UO-31", "value": "46.3 µM (inactive)"}, {"measurement": "GI50", "setting": "XF498", "value": "72.3 µM (inactive)"}]}, {"smiles": "Cn1c2c(c3ccccc31)CCN(CCCN1CCN(c3ccccc3)CC1)C2=O", "values": [{"measurement": "GI50", "setting": "786-0", "value": "19.5 µM (inactive)"}, {"measurement": "GI50", "setting": "A498", "value": "18.5 µM (inactive)"}, {"measurement": "GI50", "setting": "A549", "value": "23.6 µM (inactive)"}, {"measurement": "GI50", "setting": "ACHN", "value": "21.6 µM (inactive)"}, {"measurement": "GI50", "setting": "CAKI-1", "value": "16.7 µM (inactive)"}, {"measurement": "GI50", "setting": "CCRF-CEM", "value": "28.2 µM (inactive)"}, {"measurement": "GI50", "setting": "COLO 205", "value": "17.6 µM (inactive)"}, {"measurement": "GI50", "setting": "DLD-1", "value": "19.7 µM (inactive)"}, {"measurement": "GI50", "setting": "DMS-114", "value": "16.9 µM (inactive)"}, {"measurement": "GI50", "setting": "DMS-273", "value": "21.5 µM (inactive)"}, {"measurement": "GI50", "setting": "EKVX", "value": "26.7 µM (inactive)"}, {"measurement": "GI50", "setting": "HCT-116", "value": "16.1 µM (inactive)"}, {"measurement": "GI50", "setting": "HCT-15", "value": 19.1, "unit": "µM"}, {"measurement": "GI50", "setting": "HL-60", "value": "13.5 µM (inactive)"}, {"measurement": "GI50", "setting": "HOP-18", "value": "15.5 µM (inactive)"}, {"measurement": "GI50", "setting": "HOP-92", "value": "15.7 µM (inactive)"}, {"measurement": "GI50", "setting": "HT-29", "value": "13.8 µM (inactive)"}, {"measurement": "GI50", "setting": "IGROV-1", "value": "20.8 µM (inactive)"}, {"measurement": "GI50", "setting": "K562", "value": "17.3 µM (inactive)"}, {"measurement": "GI50", "setting": "KM-20L2", "value": "12.8 µM (inactive)"}, {"measurement": "GI50", "setting": "LOX IMVI", "value": "22.9 µM (inactive)"}, {"measurement": "GI50", "setting": "LXFL 529", "value": "17.9 µM (inactive)"}, {"measurement": "GI50", "setting": "M14", "value": "16.4 µM (inactive)"}, {"measurement": "GI50", "setting": "M19-MEL", "value": "19.5 µM (inactive)"}, {"measurement": "GI50", "setting": "MOLT-4", "value": "13.3 µM (inactive)"}, {"measurement": "GI50", "setting": "NCI-H23", "value": "20.5 µM (inactive)"}, {"measurement": "GI50", "setting": "NCI-H522", "value": "14.3 µM (inactive)"}, {"measurement": "GI50", "setting": "OVCAR-8", "value": "21.6 µM (inactive)"}, {"measurement": "GI50", "setting": "RPMI-8226", "value": "16 µM (inactive)"}, {"measurement": "GI50", "setting": "RXF 393", "value": "15.8 µM (inactive)"}, {"measurement": "GI50", "setting": "SF-268", "value": "25.7 µM (inactive)"}, {"measurement": "GI50", "setting": "SF-295", "value": "23.1 µM (inactive)"}, {"measurement": "GI50", "setting": "SF-539", "value": "17.6 µM (inactive)"}, {"measurement": "GI50", "setting": "SK-MEL-28", "value": "18.1 µM (inactive)"}, {"measurement": "GI50", "setting": "SK-MEL-5", "value": "18.9 µM (inactive)"}, {"measurement": "GI50", "setting": "SK-OV-3", "value": "19.9 µM (inactive)"}, {"measurement": "GI50", "setting": "SN12C", "value": "20.6 µM (inactive)"}, {"measurement": "GI50", "setting": "SW-620", "value": "22.1 µM (inactive)"}, {"measurement": "GI50", "setting": "TK-10", "value": "16.9 µM (inactive)"}, {"measurement": "GI50", "setting": "U-251", "value": "16.6 µM (inactive)"}, {"measurement": "GI50", "setting": "UACC-62", "value": "19.3 µM (inactive)"}, {"measurement": "GI50", "setting": "UO-31", "value": "14.7 µM (inactive)"}, {"measurement": "GI50", "setting": "XF498", "value": "12.6 µM (inactive)"}]}]}
